Results from patent US20240335486A1, “COMPOSITION FOR REARING ORGANISM BELONGING TO ORDER DECAPODA AND COMPOSITION FOR PREVENTING OR TREATING INFECTION IN DECAPODS” (SUMITOMO CHEMICAL COMPANY, LIMITED, priority 2021, published 2024).

Assays:
Test in all cases: Antibacterial activity of lactic acid cell culture products (plate culture, filter paper disk)
Format in all cases: cell-based
[1] = test system: V. nigripulchritudo TUMSAT-OK1 strain; settings: Vibrio nigripulchritudo on Marine agar; disk with 20 μL culture filtrate (ampicillin 100 μg/mL); 25° C., 24 hours; read-out: diameter of the growth-inhibitory zone
Description: (§1) Examination was performed on whether the cell culture products of NITE BP-03199, NITE BP-03200, and NITE BP-03201 have antibacterial activity to Vibrio bacteria. The V. parahaemolyticus TUMSAT-D6 strain (AHPND strain), V. nigripulchritudo TUMSAT-OK1 strain, and V. pengeicida TUMSAT-OG1 strain were used as Vibrio bacteria.
(§2) With reference to FIG. 4, the experimental method will be described. With a bacteria spreader, 100 μL of a bacterial solution 11 of a Vibrio bacterium (approximately 10^8 cfu/mL) was smeared on agar medium 12. The agar medium used was Marine agar (Difco). A filter paper disk 15 was impregnated with 20 μL of a lactic acid bacterial culture filtrate 13, and placed on the agar medium with a Vibrio bacterium smeared thereon. The lactic acid bacterial culture filtrate (cell culture product) was a solution obtained through a process that any lactic acid bacterium of NITE BP-03199, NITE BP-03200, and NITE BP-03201 was cultured with MRS Broth at a temperature of 30° C. and the culture supernatant was filtered through a filter having a pore size of 0.22 μm. The turbidity of each lactic acid bacterial culture solution at a wavelength of 600 nm was approximately 10 OD. The agar medium with filter paper disk 15 placed thereon was subjected to culture at 25° C. for 24 hours, and the diameter (mm) of a growth-inhibitory zone 14 was measured. Each numerical value shown in Table 7 indicates the diameter (mm) of the growth-inhibitory zone. A filter paper disk was impregnated with medium for lactic acid bacteria (MRS Broth) as a negative control, and another one was impregnated with the antibiotic ampicillin (100 μg/mL) as a positive control.

[2] = test system: V. parahaemolyticus TUMSAT-D6 strain (AHPND strain); settings: Vibrio parahaemolyticus on Marine agar; disk with 20 μL culture filtrate (ampicillin 100 μg/mL); 25° C., 24 hours; read-out: diameter of the growth-inhibitory zone
Description: as §1, §2

[3] = test system: V. pengeicida TUMSAT-OG1 strain; settings: Vibrio penaeicida on Marine agar; disk with 20 μL culture filtrate (ampicillin 100 μg/mL); 25° C., 24 hours; read-out: diameter of the growth-inhibitory zone
Description: as §1, §2

## CC1(C)S[C@@H]2[C@H](NC(=O)[C@H](N)c3ccccc3)C(=O)N2[C@H]1C(=O)O [Ampicillin, ampicillin]
[1]
  zone of inhibition at 100 µg/mL: 29 mm
[2]
  zone of inhibition at 100 µg/mL: 28 mm
[3]
  zone of inhibition at 100 µg/mL: 37 mm
